Key:
[1] = molecular target: T1, Transient receptor potential cation channel subfamily V member 2 (Homo sapiens, UniProt Q9Y5S1); experiment: Agonist activity at ionomycin-stimulated TRPV2 (unknown origin) activation
T1 sequence (Q9Y5S1 whole entry): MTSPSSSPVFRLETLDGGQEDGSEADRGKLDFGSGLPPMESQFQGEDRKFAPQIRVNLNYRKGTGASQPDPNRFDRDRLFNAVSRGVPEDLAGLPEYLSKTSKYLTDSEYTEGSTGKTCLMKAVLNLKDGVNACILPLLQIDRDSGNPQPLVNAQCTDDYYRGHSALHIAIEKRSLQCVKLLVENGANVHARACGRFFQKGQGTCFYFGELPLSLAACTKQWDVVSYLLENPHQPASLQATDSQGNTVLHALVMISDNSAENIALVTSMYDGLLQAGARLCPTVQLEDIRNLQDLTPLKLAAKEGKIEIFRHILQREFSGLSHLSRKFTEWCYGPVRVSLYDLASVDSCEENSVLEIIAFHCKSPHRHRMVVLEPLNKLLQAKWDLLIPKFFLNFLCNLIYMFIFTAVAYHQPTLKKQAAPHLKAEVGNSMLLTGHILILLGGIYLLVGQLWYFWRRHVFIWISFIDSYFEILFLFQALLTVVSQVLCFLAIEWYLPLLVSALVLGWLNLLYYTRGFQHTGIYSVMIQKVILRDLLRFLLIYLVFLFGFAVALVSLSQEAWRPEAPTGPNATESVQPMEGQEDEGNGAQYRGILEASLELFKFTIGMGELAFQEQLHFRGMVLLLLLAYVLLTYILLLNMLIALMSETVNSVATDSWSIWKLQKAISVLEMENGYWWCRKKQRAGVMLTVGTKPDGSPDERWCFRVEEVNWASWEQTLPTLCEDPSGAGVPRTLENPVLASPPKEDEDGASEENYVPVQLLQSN

[2] = molecular target: T2, Transient receptor potential cation channel subfamily V member 2 (Homo sapiens) (UniProt Q9Y5S1); experiment: Agonist activity at ionomycin-stimulated TRPV2 (unknown origin) activation assessed as efficacy relative to control; details: filed as agonist
T2 sequence (whole entry): T1 sequence (Q9Y5S1 whole entry)

[3] = molecular target: T3, Transient receptor potential cation channel subfamily V member 3 (Homo sapiens, UniProt Q8NET8); experiment: Agonist activity at ionomycin-stimulated TRPV3 (unknown origin) activation
T3 sequence (Q8NET8 whole entry): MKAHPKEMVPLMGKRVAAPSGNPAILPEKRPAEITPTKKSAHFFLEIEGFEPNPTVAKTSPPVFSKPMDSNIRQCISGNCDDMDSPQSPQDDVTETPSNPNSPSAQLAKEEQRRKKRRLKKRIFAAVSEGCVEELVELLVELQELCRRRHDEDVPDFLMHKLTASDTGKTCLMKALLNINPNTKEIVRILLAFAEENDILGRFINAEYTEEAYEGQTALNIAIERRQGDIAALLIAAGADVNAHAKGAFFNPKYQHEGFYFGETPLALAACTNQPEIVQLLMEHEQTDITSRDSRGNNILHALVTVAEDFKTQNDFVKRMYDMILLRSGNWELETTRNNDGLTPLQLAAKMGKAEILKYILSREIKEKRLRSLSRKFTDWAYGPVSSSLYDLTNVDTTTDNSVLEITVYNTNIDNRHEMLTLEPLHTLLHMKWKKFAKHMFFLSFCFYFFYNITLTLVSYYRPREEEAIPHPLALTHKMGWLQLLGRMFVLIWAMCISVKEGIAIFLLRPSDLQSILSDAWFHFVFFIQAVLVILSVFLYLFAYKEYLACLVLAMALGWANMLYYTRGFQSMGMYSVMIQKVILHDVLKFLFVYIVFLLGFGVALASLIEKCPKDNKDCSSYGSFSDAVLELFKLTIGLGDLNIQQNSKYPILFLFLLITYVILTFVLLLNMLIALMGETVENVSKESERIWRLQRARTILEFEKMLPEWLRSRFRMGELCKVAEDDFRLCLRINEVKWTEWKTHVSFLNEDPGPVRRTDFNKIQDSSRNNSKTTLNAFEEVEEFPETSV

[4] = molecular target: T4, Transient receptor potential cation channel subfamily V member 4 (Homo sapiens, UniProt Q9HBA0); experiment: Agonist activity at ionomycin-stimulated TRPV4 (unknown origin) activation assessed as efficacy relative to control
[5] = molecular target: T4, Transient receptor potential cation channel subfamily V member 4; experiment: Agonist activity at ionomycin-stimulated TRPV4 (unknown origin) channel desensitization in presence of 4alphaPDD
[6] = molecular target: Transient receptor potential cation channel subfamily A member 1 (Homo sapiens, UniProt O75762); experiment: Agonist activity at TRPA1 (unknown origin) activation assessed as efficacy relative to control; details: filed as agonist
[7] = molecular target: T5, G-protein coupled receptor 55 (Homo sapiens, UniProt Q9Y2T6); experiment: Binding affinity to human GPR55 expressed in HEK293 cells assessed as LPI-stimulated ERK1/2 phosphorylation; type: cell-based
[8] = molecular target: G-protein coupled receptor 6 (Homo sapiens, UniProt P46095); experiment: Binding affinity to human GPR6 expressed in HEK293 cells assessed as reduction in cAMP level by measuring efficacy incubated for 1 hr by HTRF assay relative to control; type: cell-based
[9] = molecular target: T5, G-protein coupled receptor 55; experiment: Binding affinity to human GPR55 expressed in HEK293 cells assessed as LPI-stimulated ERK1/2 phosphorylation by measuring efficacy relative to control; type: cell-based
[10] = molecular target: Transient receptor potential cation channel subfamily M member 8 (Homo sapiens, UniProt Q7Z2W7); experiment: Antagonist activity at TRPM8 (unknown origin) desensitization in presence of icilin
Cytochrome P450 1A1 [11] = molecular target: T6, Cytochrome P450 1A1 (Homo sapiens, UniProt P04798); experiment: Inhibition of recombinant CYP1A1 (unknown origin) preincubated with NADPH for 20 mins and measured after 30 min; type: ADME
Cytochrome P450 1A1 [12] = molecular target: T6, Cytochrome P450 1A1; experiment: Inhibition of human recombinant CYP1A1 preincubated with NADPH for 20 mins and measured after 30 min by Lineweaver-burk plots analysis; type: ADME
Cytochrome P450 2B6 = molecular target: T7, Cytochrome P450 2B6 (Homo sapiens, UniProt P20813); experiment: Mixed inhibition of recombinant CYP2B6 (unknown origin) using coumarin as substrate in presence of NADPH-generating system; type: ADME
T7 sequence (P20813 whole entry): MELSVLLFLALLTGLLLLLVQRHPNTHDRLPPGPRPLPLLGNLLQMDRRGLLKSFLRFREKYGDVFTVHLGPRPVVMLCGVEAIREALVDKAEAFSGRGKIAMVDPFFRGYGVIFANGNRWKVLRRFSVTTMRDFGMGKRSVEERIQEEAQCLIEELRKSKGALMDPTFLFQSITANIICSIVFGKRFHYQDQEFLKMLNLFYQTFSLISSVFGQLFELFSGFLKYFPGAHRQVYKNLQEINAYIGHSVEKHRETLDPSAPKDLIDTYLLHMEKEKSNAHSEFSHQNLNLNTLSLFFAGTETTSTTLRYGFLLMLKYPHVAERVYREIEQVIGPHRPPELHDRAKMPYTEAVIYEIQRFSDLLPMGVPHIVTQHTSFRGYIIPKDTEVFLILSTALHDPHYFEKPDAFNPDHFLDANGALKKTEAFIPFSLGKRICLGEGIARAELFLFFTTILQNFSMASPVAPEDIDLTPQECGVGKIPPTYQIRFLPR

Cytochrome P450 2C19 = Cytochrome P450 2C19 (Homo sapiens, UniProt P33261); experiment: Mixed inhibition of CYP2C19 (unknown origin) by measuring inhibition constant; type: ADME
Cytochrome P450 2C19, sequence (P33261 whole entry): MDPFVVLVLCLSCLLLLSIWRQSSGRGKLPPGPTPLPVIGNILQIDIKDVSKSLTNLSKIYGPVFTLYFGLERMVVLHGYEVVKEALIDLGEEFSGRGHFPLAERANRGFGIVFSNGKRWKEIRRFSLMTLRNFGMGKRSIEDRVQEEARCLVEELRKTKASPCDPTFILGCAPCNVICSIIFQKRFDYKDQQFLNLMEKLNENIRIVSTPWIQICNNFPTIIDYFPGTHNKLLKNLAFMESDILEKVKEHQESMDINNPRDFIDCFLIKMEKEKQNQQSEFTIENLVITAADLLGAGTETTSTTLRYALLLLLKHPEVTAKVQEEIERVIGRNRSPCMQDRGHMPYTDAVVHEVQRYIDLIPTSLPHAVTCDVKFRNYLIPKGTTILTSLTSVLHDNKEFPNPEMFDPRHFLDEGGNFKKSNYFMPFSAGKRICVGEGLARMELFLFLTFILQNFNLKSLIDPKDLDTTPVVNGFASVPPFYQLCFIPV

T5 sequence (Q9Y2T6 whole entry): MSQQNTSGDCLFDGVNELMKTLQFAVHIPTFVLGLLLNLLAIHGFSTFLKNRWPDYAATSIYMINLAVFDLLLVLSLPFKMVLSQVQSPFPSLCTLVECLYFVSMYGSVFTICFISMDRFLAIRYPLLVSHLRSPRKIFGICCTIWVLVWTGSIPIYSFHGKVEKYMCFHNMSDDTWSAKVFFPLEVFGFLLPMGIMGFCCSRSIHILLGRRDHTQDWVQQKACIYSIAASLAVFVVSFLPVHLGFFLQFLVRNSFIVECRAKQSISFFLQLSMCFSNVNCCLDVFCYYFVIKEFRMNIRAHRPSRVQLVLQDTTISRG
T6 sequence (P04798 whole entry): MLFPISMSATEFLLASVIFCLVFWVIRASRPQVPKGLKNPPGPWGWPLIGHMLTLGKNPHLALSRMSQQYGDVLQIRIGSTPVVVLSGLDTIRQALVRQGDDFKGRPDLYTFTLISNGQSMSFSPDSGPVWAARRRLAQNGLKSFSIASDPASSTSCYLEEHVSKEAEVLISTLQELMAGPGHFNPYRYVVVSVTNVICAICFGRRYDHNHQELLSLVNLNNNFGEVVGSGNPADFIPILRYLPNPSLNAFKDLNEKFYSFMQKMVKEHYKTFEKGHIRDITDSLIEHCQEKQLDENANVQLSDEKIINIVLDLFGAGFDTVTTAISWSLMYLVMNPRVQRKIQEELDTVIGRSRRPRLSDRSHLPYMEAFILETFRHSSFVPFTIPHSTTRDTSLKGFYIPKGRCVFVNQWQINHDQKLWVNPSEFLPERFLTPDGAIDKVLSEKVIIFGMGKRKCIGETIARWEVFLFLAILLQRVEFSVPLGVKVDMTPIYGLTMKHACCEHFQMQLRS
T4 sequence (Q9HBA0 whole entry): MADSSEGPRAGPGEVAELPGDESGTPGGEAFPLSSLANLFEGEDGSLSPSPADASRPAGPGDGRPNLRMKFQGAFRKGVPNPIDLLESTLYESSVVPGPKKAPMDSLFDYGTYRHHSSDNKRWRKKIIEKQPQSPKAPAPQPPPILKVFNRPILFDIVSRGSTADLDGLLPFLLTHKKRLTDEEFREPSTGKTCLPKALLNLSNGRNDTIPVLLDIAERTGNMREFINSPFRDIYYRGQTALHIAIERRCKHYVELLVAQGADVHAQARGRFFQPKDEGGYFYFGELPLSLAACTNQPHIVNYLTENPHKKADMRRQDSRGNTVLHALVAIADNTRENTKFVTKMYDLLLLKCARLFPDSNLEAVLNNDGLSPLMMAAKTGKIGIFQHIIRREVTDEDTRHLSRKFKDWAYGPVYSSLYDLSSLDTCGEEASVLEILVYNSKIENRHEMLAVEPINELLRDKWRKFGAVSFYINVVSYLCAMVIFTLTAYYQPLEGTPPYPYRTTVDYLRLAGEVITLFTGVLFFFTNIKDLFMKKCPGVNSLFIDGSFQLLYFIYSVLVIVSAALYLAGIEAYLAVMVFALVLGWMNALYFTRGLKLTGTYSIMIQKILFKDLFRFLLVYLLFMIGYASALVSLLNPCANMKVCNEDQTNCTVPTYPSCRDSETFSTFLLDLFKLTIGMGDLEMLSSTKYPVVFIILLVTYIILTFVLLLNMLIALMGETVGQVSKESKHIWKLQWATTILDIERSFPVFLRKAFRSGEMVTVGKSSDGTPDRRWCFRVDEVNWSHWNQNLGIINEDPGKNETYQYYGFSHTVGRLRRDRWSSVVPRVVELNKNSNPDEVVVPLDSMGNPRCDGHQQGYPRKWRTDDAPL
G-protein coupled receptor 6, sequence (P46095 whole entry): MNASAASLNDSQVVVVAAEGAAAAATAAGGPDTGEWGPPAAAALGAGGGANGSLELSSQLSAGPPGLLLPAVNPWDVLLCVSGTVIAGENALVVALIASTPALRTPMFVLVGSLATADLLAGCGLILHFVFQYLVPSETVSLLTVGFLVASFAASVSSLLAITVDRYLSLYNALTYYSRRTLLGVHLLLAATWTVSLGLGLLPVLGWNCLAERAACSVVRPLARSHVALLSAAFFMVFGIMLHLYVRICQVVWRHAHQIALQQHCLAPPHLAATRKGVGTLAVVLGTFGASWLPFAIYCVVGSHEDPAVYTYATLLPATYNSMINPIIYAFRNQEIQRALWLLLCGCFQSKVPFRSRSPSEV
Transient receptor potential cation channel subfamily A member 1, sequence (O75762 whole entry): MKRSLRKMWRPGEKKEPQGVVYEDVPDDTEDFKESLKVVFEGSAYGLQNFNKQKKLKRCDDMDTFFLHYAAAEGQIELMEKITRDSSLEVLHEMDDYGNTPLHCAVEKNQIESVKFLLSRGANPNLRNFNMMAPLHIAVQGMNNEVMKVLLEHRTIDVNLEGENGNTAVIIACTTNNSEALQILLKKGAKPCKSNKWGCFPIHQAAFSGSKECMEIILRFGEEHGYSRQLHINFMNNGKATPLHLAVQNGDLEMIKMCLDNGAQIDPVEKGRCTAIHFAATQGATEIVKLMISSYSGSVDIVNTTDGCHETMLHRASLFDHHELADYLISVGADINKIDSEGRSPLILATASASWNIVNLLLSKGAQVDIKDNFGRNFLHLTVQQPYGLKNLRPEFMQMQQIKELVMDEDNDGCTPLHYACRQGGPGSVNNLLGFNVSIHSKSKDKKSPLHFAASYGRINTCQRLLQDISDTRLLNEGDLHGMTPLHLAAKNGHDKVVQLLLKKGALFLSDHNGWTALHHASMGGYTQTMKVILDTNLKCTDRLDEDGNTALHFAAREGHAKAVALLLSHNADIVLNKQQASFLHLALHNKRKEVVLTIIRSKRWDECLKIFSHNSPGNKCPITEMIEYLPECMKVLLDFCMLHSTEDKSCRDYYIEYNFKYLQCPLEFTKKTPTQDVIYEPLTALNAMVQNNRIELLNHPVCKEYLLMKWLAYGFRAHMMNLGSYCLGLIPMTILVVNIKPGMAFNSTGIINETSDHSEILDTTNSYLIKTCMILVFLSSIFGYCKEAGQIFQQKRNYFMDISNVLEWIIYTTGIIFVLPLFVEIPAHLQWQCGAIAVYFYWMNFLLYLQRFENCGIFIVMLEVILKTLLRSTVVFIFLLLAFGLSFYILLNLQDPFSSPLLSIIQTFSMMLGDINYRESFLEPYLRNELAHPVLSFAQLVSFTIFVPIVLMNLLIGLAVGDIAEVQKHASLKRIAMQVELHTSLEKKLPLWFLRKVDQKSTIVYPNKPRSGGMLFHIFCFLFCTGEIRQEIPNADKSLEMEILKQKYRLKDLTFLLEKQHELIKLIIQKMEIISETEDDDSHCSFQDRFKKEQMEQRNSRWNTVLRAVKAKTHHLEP
Transient receptor potential cation channel subfamily M member 8, sequence (Q7Z2W7 whole entry): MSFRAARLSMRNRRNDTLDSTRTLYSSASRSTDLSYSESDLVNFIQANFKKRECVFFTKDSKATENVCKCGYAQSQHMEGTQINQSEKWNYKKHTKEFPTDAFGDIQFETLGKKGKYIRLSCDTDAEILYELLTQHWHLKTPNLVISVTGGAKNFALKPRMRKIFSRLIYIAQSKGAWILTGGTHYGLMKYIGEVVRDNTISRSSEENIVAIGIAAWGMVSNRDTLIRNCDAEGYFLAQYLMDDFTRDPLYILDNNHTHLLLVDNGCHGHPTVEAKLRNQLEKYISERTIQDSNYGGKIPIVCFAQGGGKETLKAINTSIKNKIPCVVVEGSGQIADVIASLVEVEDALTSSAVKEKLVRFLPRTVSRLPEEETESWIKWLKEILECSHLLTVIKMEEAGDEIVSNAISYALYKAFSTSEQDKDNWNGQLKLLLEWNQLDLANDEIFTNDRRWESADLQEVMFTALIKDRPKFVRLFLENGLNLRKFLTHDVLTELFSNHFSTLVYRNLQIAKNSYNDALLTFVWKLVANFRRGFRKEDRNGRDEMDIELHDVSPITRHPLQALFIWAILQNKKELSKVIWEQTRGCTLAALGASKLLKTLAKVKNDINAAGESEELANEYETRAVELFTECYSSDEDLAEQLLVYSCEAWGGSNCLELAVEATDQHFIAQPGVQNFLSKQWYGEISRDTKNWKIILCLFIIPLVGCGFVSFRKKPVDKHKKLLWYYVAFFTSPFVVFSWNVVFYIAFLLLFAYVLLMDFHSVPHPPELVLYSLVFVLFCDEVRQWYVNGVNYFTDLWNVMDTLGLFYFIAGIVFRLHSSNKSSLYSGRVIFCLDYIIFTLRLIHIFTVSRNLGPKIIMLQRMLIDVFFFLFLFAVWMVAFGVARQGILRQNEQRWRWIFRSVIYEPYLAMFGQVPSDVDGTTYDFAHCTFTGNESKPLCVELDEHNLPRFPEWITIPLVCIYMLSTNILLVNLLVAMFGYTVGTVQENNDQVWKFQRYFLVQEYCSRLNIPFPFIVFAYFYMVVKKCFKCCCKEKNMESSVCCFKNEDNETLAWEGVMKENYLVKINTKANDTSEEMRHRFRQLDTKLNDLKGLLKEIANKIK

C=C(C)[C@@H]1CCC(C)=C[C@H]1c1c(O)cc(CCC)cc1O [CANNABIDIVARIN]
EC50 [1]: 7.3 µM
Efficacy [2]: 50%
EC50 [3]: 1700 nM
Efficacy [4]: 30%
IC50 [5]: 2900 nM
Efficacy [6]: 105%
EC50 [7]: 400 nM
Efficacy [8]: 90%
Efficacy [9]: 49%
IC50 [10]: 900 nM
IC50 (Cytochrome P450 1A1 [11]): 60 nM
Ki (Cytochrome P450 1A1 [12]): 1600 nM
IC50 (Cytochrome P450 2B6): 7.4 µM
Ki (Cytochrome P450 2C19): 1400 nM
